Consider 1 compound from US7977388B2, “Quinone derivative 2,3-dimethoxy-5-methyl-6-(10-hydroxydecyl)-1,4-benzoquinone for the treatment of muscular dystrophies” (Santhera Pharmaceuticals (Schweiz) AG, priority 2005, dated 2011).

In this test the test system is dystrophin-deficient mdx mouse. The test can be described thus: Voluntary daily running performance of idebenone-treated mdx mice. Type of test: in vivo. Here is the method:
The effect of idebenone on the running performance was tested in the dystrophin-deficient mdx mouse, a validated animal model for DMD. Starting at day 21 of age, mdx mice were treated with idebenone. Their daily running performance was compared to mdx mice treated with vehicle only and to non-treated wild-type mice. For this, idebenone was dissolved in 0.5% w/v carboxymethylcellulose (CMC) to a final concentration of 20 mg/ml. Idebenone (20 mg/ml in 0.5% CMC) was applied once a day by gavage feeding. The final dose of idebenone at all time points was 200 mg/kg body weight. Control mice received the same amount of vehicle only. […] Idebenone treated mdx mice performed clearly better compared to the vehicle-treated mdx mice from the start of the analysis.

As to `COC1=C(OC)C(=O)C(CCCCCCCCCCO)=C(C)C1=O` [idebenone, 2,3-dimethoxy-5-methyl-6-(10-hydroxydecyl)-1,4-benzoquinone], under “mdx mice treated daily with idebenone vs vehicle-treated mdx and wild-type mice, distance in meters”, the “Total daily running distance” value is “clearly increased”. Further, the Daily running performance entry (mdx mice, 200 mg/kg body weight once a day by gavage in 0.5% CMC from day 21 of age, analysed 29-84 days of age, vs vehicle-treated mdx mice) is recorded as “prominent increase”.
